Measured values: ChEMBL document CHEMBL1140770, “Chemo-, regio-, and stereoselectivity of F-ring opening reactions in the cephalostatin series” (2008)

Columns and labels:
Type in all cases: functional
Settings in all cases: for CC50: read-out: LC50 (the source's name)
[1] = tested on: HepG2; test: Cytostatic activity against human HepG2 cells by SRB assay
[2] = Cytostatic activity against human HM02 cells by SRB assay
[3] = tested on: MCF7; test: Cytostatic activity against human MCF7 cells by SRB assay

Row | Compound | GI50 [1] [µM] | TGI [1] [µM] | CC50 [1] [µM] | GI50 [2] [µM] | TGI [2] [µM] | CC50 [2] [µM] | GI50 [3] [µM] | TGI [3] [µM] | CC50 [3] [µM]
1 | C[C@H](CO)CC[C@H]1O[C@H]2C=C3[C@@H]4CC[C@H]5Cc6nc7c(nc6C[C@]5(C)[C@H]4C[C@@H](O)[C@]3(C)[C@H]2[C@@H]1C)C[C@@H]1CC[C@H]2C3=C[C@@H]4O[C@H](CC[C@H](C)CO)[C@@H](C)[C@@H]4[C@@]3(C)C3(C[C@@H]2[C@@]1(C)C7)OCCO3 | 1 | > 10 | > 10 | 0.63 | 1 | > 10 | 8.2 | > 10 | > 10
2 | C[C@H]1CC[C@@]2(OC1)O[C@H]1C=C3[C@@H]4CC[C@H]5Cc6nc7c(nc6C[C@]5(C)[C@H]4CC(=O)[C@]3(C)[C@H]1[C@@H]2C)C[C@@H]1CC[C@H]2C3=C[C@@H]4O[C@]5(CC[C@H](C)CO5)[C@@H](C)[C@@H]4[C@@]3(C)C(=O)C[C@@H]2[C@@]1(C)C7 | 4.6 | > 10 | > 10 | 5.5 | 7 | > 10 | > 10 | > 10 | > 10
3 | C[C@H]1CC[C@@]2(OC1)O[C@H]1C=C3[C@@H]4CC[C@H]5Cc6nc7c(nc6C[C@]5(C)[C@H]4C[C@@H](O)[C@]3(C)[C@H]1[C@@H]2C)C[C@@H]1CC[C@H]2C3=C[C@@H]4O[C@]5(CC[C@H](C)CO5)[C@@H](C)[C@@H]4[C@@]3(C)C3(C[C@@H]2[C@@]1(C)C7)OCCO3 | 0.07 | 1.7 | > 10 | 2.8 | > 10 | > 10 | 0.1 | > 10 | > 10
4 | C[C@H]1CC[C@@]2(OC1)O[C@H]1C=C3[C@@H]4CC[C@H]5Cc6nc7c(nc6C[C@]5(C)[C@H]4CC(=O)[C@]3(C)[C@H]1[C@@H]2C)C[C@@H]1CC[C@H]2C3=C[C@@H]4O[C@]5(CC[C@H](C)CO5)[C@@H](C)[C@@H]4[C@@]3(C)[C@H](O)C[C@@H]2[C@@]1(C)C7 | > 10 | > 10 | > 10 | 3 | > 10 | > 10 | > 10 | > 10 | > 10
5 | C[C@H]1CC[C@@]2(OC1)O[C@H]1C=C3[C@@H]4CC[C@H]5Cc6nc7c(nc6C[C@]5(C)[C@H]4C[C@@H](O)[C@]3(C)[C@H]1[C@@H]2C)C[C@@H]1CC[C@H]2C3=C[C@@H]4O[C@]5(CC[C@H](C)CO5)[C@@H](C)[C@@H]4[C@@]3(C)[C@H](O)C[C@@H]2[C@@]1(C)C7 | 0.65 | 5 | > 10 | 2.6 | 7 | > 10 | 5.2 | > 10 | > 10
6 | C=C1C[C@H]2[C@@H](CC[C@H]3Cc4nc5c(nc4C[C@@]32C)C[C@@H]2CC[C@H]3C4=C[C@@H]6O[C@H](CC[C@H](C)CO)[C@@H](C)[C@@H]6[C@@]4(C)[C@H](O)C[C@@H]3[C@@]2(C)C5)C2=C[C@@H]3O[C@H](CC[C@H](C)CO)[C@@H](C)[C@@H]3[C@@]12C | 1 | > 10 | > 10 | 1.7 | 5.8 | 9.5 | 5 | > 10 | > 10
7 | C[C@H]1CC[C@@]2(OC1)O[C@H]1C=C3[C@@H]4CC[C@H]5Cc6nc7c(nc6C[C@]5(C)[C@H]4C[C@@H](O)[C@]3(C)[C@H]1[C@@H]2C)C[C@@H]1CC[C@H]2C3=C[C@@H]4O[C@]5(CC[C@H](C)CO5)[C@@H](C)[C@@H]4[C@@]3(C)C(CO)C[C@@H]2[C@@]1(C)C7 (stereo partly specified) | 6.9 | 10 | > 10 | 2.3 | > 10 | > 10 | 0.1 | > 10 | > 10
8 | C[C@H](CO)CC[C@H]1O[C@H]2C=C3[C@@H]4CC[C@H]5Cc6nc7c(nc6C[C@]5(C)[C@H]4CC4(OCCO4)[C@]3(C)[C@H]2[C@@H]1C)C[C@@H]1CC[C@H]2C3=C[C@@H]4O[C@]5(CC[C@H](C)CO5)[C@@H](C)[C@@H]4[C@@]3(C)[C@H](O)C[C@@H]2[C@@]1(C)C7 | 10 | > 10 | > 10 | 0.95 | 3.1 | > 10 | 2.5 | 10 | > 10
9 | C=C1C[C@H]2[C@@H](CC[C@H]3Cc4nc5c(nc4C[C@@]32C)C[C@@H]2CC[C@H]3C4=C[C@@H]6O[C@]7(CC[C@H](C)CO7)[C@@H](C)[C@@H]6[C@@]4(C)C(=O)C[C@@H]3[C@@]2(C)C5)C2=C[C@@H]3O[C@]4(CC[C@H](C)CO4)[C@@H](C)[C@@H]3[C@@]12C | > 10 | > 10 | > 10 | > 10 | > 10 | > 10 | > 10 | > 10 | > 10
